The text below walks through data of patent US9587171B2, “Ammonium salts of chelating agents and their use in oil and gas field applications” (AKZO NOBEL CHEMICALS INTERNATIONAL B.V., priority 2010, dated 2017).

A short description of this data set: Descaling efficiency for iron sulfide (FeS) at pH 3.8 as a function of temperature. The class given is physicochemical. Conditions: 20° C., 24 hours, FIG. 4. As to the method:
The Parr bomb was placed in an oven at 90° C. The beaker glass was closed with parafilm. After 24 hours at temperature the samples were filtered by a 0.45 micron filter prior to ICP-ES analysis. The descaling efficiency was calculated from the iron concentration in the liquid and the initial amount of FeS.

Take `O=C([O-])CC[C@@H](C(=O)[O-])N(CC(=O)[O-])CC(=O)[O-].[Na+].[Na+].[Na+].[Na+]` [sodium GLDA]: the “descaling efficiency for FeS at low temperature” value is “dissolved more FeS at low temperature”.
